Reference: ChEMBL document CHEMBL1201862, “PubChem BioAssay data set” (2004)
Where a name gives a salt, the structure may show the parent alone. Activity calls are given as the source filed them.

Assays:
[1] = biological target: T1, Streptokinase A (Streptococcus pyogenes serotype M1, UniProt P10520); assay: S. pyogenes streptokinase expression inhibitors, potency, dose response, plasminogen activation absorbance, OD405 (AID 1914); assay type: functional, Streptococcus pyogenes M1 GAS;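 note: secreted streptokinase activity via plasminogen activation per viability signal from cell pellet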
T1 sequence (P10520 whole entry): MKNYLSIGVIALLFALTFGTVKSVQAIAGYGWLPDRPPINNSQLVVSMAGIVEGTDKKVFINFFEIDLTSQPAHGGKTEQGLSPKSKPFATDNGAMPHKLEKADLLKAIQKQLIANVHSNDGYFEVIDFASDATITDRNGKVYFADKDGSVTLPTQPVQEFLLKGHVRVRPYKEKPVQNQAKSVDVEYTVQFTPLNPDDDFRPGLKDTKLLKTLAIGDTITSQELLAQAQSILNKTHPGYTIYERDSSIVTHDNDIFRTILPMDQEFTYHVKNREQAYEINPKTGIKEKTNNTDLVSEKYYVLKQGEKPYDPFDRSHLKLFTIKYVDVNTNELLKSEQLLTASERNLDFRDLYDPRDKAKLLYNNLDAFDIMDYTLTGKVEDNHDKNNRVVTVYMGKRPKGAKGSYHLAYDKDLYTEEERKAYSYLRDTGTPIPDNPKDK

[2] = tested on: Streptococcus sp. 'group A'; assay: growth inhibition of control SK(-) GAS strain, dose response, counter-screen for streptokinase expression inhibitor project, luminescence, kanamycin, BacTiterGlo, confirmation (AID 1900); assay type: functional, organism-based
[3] = biological target: T2, Carboxy-terminal domain RNA polymerase II polypeptide A small phosphatase 1 (Homo sapiens, UniProt Q9GZU7); assay: inhibitors of CTDSP1, concentration-response testing, biochemical assay, absorbance-based, actives from ultra-high-throughput screening (AID 540297); assay type: functional
T2 sequence (Q9GZU7 whole entry): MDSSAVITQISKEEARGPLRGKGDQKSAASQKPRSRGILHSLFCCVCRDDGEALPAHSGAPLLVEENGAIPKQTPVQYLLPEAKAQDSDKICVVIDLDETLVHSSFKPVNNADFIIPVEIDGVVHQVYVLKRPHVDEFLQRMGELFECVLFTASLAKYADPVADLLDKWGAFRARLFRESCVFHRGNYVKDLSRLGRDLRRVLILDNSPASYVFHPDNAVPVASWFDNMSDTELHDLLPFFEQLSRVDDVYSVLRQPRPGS

[4] = tested on: Streptococcus; assay: Group A Streptococcus viability loss, dose response, counter-screen for streptokinase expression inhibitor project, luminescence, BacTiterGlo (AID 1915); assay type: functional, organism-based;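 note: potency for reduction of bacterial viability or growth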
[5] = A cytotoxicity screen of small molecule inhibitors of the PhoP region in Salmonella typhi identified in the primary screen. [Related pubchem assays: 1850, 1864, 1985 ]; assay type: functional
[6] = growth suppression of PTEN-null colon cells, dose response, cell-based, HCT116 PTEN knockout (AID 1047); assay type: functional;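 note: HCT116 colon tumor cells with PTEN knocked out; cells exposed to compound for 60 hours before readout; potency for loss of cell viability measured by luminescence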
[7] = growth suppression of beta-catenin-knockout colon cells, dose response, cell-based, HCT116, human colon tumor (AID 1045); assay type: functional;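 note: HCT116 colon tumor cells with beta catenin knocked out; cells exposed to compound for 60 hours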
[8] = control 3'UTR Renilla luciferase suppression, dose response, counter-screen for Shn3 inhibitor project, cell-based, Clone20-Shn3RL, cherry-picked (AID 624133); assay type: functional
[9] = cytotoxicity toward DRD oncogenic fibroblasts, dose response, cell-based, non-viral oncogenic, luminescence (AID 1934); assay type: functional; conditions: Homo sapiens
[10] = tested on: BJ; assay: cytotoxicity toward Ras-transformed BJeLR fibroblasts, dose response, cell-based, alamar blue fluorescence, cherrypicked samples (AID 2631); assay type: functional; conditions: Homo sapiens;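 note: confirmatory dose-response assay in RAS-dependent BJ fibroblasts engineered with TERT, LT and ST, with cytotoxicity read by fluorescence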
[11] = tested on: BJ; assay: cells; assay type: functional, cell-based; conditions: Homo sapiens
[12] = tested on: BJ; assay: cytotoxicity toward BJ-TERT-LT-ST fibroblasts, dose response, cell-based, RAS-independent, luminescence (AID 1935); assay type: functional; conditions: Homo sapiens;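 note: BJ fibroblasts immortalized with TERT plus LT and ST oncogenes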
[13] = Shn3 3'UTR reporter inhibitors, dose response, cell-based, Clone20 osteoblasts, firefly luciferase, cherry-picked (AID 624132); assay type: functional;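 note: firefly luciferase luminescence from reporter carrying the Shn3 3'UTR in osteoblasts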
[14] = tested on: BJ; assay: cytotoxicity toward BJ-TERT fibroblasts, dose response, cell-based, RAS-independent, luminescence (AID 1933); assay type: functional; conditions: Homo sapiens
[15] = biological target: Cytochrome P450 3A4 (Homo sapiens, UniProt P08684);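 note: CYP3A4 tested as one member of a cytochrome P450 panel screen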
[16] = biological target: FAD-linked sulfhydryl oxidase ALR (Homo sapiens, UniProt P55789); assay: inhibitors of human ALR sulfhydryl oxidase, dose response, biochemical, H2O2 detection, luminescence, cherry-pick (AID 493248)
[17] = biological target: Eukaryotic translation initiation factor 4E (Mus musculus, UniProt P63073); assay: eIF4E–eIF4G protein interaction inhibitors, dose response, biochemical, TR-FRET (AID 855); assay type: functional;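 note: potency for disrupting eIF4E binding to eIF4GI seen as loss of FRET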
[18] = tested on: H4; assay: Luminescence Cell-Based Dose Response HTS to Identify Activators of 5'UTR Stem-Loop Driven Prion Protein mRNA Translation in H4 Neuroglioblastoma Cells. [Related pubchem assays: 1829 (Project Summary), 1814 (Primary HTS)]; assay type: functional; conditions: Homo sapiens
[19] = Luminescence Cell-Based Dose Response HTS to Identify Activators of Luciferase Translation or Activity in H4 […] Cells. [Related pubchem assays: 1829 (Project Summary), 1814 (Primary HTS)]; assay type: functional
[20] = Luminescence Cell-Based Dose Confirmation HTS to Identify Activators of 5'UTR Stem-Loop Driven Alpha-Synuclein mRNA Translation in H4 Neuroglioblastoma Cells. [Related pubchem assays: 1829 (Project Summary), 1814 (Primary HTS)]; assay type: functional
[21] = biological target: T3, Cytochrome P450 1A2 (Homo sapiens, UniProt P05177);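 note: PubChem cytochrome P450 panel assay, CYP1A2 panel member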
T3 sequence (P05177 whole entry): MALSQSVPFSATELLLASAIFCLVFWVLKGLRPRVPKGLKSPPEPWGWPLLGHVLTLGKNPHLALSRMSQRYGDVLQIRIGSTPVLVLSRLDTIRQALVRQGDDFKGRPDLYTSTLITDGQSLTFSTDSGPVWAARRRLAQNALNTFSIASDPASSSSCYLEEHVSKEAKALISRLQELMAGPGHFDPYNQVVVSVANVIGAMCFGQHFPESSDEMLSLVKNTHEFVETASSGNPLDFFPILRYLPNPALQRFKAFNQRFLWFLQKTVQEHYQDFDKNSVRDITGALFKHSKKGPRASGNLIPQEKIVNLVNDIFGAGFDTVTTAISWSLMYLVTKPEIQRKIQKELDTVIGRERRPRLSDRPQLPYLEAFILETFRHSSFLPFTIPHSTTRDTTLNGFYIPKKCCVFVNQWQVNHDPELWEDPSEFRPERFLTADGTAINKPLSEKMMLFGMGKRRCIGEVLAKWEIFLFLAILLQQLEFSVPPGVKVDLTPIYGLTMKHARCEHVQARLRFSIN

[22] = biological target: T4, Cytochrome P450 2C9 (Homo sapiens, UniProt P11712)
[23] = biological target: T4, Cytochrome P450 2C9; remark: listed apart in the source
[24] = biological target: Cytochrome P450 2D6 (Homo sapiens, UniProt P10635);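 note: CYP2D6 member of a cytochrome P450 panel assay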
[25] = biological target: Cytochrome P450 2C19 (Homo sapiens, UniProt P33261); assay: Cytochrome panel assay with activity outcomes. Panel member name: p450-cyp2c19 Compounds with AC50 equal or less than 10 uM are considered active; assay type: functional
Cytochrome P450 2C19, sequence (P33261 whole entry): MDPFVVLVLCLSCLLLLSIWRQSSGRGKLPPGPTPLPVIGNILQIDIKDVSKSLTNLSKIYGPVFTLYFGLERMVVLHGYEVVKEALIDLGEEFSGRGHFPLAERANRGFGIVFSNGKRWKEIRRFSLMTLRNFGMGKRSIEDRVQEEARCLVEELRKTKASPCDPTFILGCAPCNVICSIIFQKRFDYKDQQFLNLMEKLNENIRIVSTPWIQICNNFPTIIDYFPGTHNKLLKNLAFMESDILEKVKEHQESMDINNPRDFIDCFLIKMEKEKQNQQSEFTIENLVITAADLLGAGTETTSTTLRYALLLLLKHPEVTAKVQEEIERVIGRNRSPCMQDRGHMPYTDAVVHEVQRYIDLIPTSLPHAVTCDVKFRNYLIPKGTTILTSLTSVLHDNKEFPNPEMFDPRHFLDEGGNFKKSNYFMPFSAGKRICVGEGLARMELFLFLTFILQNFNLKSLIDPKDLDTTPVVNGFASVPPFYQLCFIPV

T4 sequence (P11712 whole entry): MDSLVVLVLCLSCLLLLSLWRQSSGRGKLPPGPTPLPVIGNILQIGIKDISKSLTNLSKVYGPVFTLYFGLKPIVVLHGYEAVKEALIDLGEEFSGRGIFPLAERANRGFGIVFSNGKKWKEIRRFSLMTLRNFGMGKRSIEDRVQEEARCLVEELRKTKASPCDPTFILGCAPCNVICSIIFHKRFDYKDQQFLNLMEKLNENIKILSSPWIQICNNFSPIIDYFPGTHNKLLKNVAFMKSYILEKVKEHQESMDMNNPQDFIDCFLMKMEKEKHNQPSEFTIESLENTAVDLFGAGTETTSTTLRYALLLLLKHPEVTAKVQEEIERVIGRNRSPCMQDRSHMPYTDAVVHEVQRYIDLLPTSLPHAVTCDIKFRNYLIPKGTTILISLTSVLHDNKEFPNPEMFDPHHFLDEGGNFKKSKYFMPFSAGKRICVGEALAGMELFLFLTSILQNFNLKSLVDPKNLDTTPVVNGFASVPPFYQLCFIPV
FAD-linked sulfhydryl oxidase ALR, sequence (P55789 whole entry): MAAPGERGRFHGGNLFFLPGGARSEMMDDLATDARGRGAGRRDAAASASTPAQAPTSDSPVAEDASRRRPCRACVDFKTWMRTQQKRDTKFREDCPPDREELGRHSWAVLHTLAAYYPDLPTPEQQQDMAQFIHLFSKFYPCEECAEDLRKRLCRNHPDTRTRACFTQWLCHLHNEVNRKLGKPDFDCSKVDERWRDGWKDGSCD
Cytochrome P450 3A4, sequence (P08684 whole entry): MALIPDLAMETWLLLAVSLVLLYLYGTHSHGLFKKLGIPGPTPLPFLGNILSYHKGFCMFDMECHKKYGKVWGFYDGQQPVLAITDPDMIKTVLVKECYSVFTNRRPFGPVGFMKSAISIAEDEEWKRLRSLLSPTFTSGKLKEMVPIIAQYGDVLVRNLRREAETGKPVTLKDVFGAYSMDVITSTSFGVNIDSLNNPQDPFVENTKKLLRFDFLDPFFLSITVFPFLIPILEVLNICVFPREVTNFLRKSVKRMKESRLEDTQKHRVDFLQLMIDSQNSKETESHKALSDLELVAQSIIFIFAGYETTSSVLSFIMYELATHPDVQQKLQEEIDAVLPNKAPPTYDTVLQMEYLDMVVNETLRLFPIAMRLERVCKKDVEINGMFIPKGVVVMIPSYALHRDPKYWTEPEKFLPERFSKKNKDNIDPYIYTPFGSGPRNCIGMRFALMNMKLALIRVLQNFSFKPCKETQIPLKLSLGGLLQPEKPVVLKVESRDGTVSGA
Eukaryotic translation initiation factor 4E, sequence (P63073 whole entry): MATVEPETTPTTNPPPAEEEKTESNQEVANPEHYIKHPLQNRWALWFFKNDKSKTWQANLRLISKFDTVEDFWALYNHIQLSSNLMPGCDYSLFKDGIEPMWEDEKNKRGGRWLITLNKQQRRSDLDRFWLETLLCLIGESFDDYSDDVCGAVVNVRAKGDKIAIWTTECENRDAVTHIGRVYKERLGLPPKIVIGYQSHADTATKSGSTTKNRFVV
Cytochrome P450 2D6, sequence (P10635 whole entry): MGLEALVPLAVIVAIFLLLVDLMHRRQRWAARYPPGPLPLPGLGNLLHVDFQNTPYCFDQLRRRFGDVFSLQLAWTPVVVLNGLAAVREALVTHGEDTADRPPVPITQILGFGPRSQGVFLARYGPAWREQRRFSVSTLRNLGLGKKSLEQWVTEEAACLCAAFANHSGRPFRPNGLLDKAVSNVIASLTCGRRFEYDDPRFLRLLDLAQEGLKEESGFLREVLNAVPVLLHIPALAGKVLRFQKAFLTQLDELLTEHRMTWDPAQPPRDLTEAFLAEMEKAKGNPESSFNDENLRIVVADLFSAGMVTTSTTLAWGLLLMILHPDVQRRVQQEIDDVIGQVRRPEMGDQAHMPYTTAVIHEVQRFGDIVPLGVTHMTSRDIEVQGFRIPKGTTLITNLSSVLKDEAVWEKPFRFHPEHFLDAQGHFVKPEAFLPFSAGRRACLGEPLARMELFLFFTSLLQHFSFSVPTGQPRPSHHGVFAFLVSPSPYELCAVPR

Cc1ccc2[nH]c(O)c(N=NC(=O)c3ccc(NS(=O)(=O)c4cccs4)cc3)c2c1
EC50 [1]: > 150 µM (not active)
EC50 [2]: 0.429 µM (active)
IC50 [3]: 11.5 µM (active)
EC50 [4]: 16.3 µM (active)

Cn1cnc(C(=O)N2CCc3ccccc3C2)c1C(=O)N1CCc2ccccc2C1
IC50 [3]: 4.36 µM (active)

NC1CCN(c2nc3c(cc2F)c(=O)c(C(=O)O)cn3-c2ccc(F)cc2F)C1 (centres undefined) [TOSUFLOXACIN TOSYLATE]
EC50 [5]: > 50 µM (active)
EC50 [2]: 0.276 µM (active)
EC50 [4]: 0.999 µM (active)

CCCCCC(=O)Nc1ccc(C(=O)N/N=C/c2ccc([N+](=O)[O-])cc2)cc1
EC50 [6]: 3.92 µM (active)
EC50 [7]: 4.99 µM (active)

Cc1ccc(N2C(=O)c3cccc4c([N+](=O)[O-])ccc(c34)C2=O)c2cccnc12
AC50 [8]: 29.5 µM (active)
EC50 [9]: 5.37 µM (inconclusive)
EC50 [10]: 0.782 µM (active)
EC50 [11]: 26.5 µM (inconclusive)
EC50 [12]: 3.88 µM (inconclusive)
AC50 [13]: 5.68 µM (active)
EC50 [14]: 2.21 µM (inconclusive)

CS(=O)(=O)c1cnc2c(-c3ccc(F)cc3)cnn2c1N
EC50 [5]: > 50 µM (active)
AC50 [15]: 28.2 µM (inconclusive)

Cc1nnc(SCC(=O)Nc2nsc(-c3ccc(Cl)cc3)n2)s1
IC50 [3]: 15.2 µM (active)

C/C(=N\NC(=O)c1cccc(N/N=C(\C)c2ccncc2)c1)c1ccncc1
AC50 [16]: 0.205 µM (active)

COC(=O)c1[nH]c2ccc(C)cc2c1NS(=O)(=O)c1ccc(F)cc1
AC50 [16]: 1.81 µM (active)

O=C1C2C3C=CC(CC3)C2C(=O)N1/N=C/c1ccc(O)cc1 (centres undefined)
EC50 [5]: > 50 µM (active)

COc1ccc2c(c1)CC[C@@H]1[C@@H]2CC[C@]2(C)C(=O)CC[C@@H]12
IC50 [17]: > 64 µM (inactive)

COc1cc(OC)cc(C(=O)Nc2ccccc2C(=O)N2CCCC2)c1
EC50 [18]: > 120 µM (not active)
EC50 [19]: > 120 µM (not active)
EC50 [20]: > 120 µM (not active)
AC50 [21]: 14.1 µM (inconclusive)
AC50 [22]: inconclusive

O=C(NCCN1CCOCC1)c1nn2c(c1Cl)NC(c1ccccc1)CC2C(F)(F)F (centres undefined)
AC50 [23]: 35.5 µM (inconclusive)
AC50 [24]: 35.5 µM (inconclusive)
IC50 [17]: > 64 µM (inactive)

N#Cc1ccccc1S(=O)(=O)N1CCN(C(=O)c2cc3c(s2)CCC3)CC1
IC50 [3]: 5.88 µM (active)

COc1ccc(/C=C/C(=O)Nc2cc(C(F)(F)F)ccc2Cl)cc1
AC50 [25]: 0.00631 µM (inconclusive)
AC50 [15]: 10 µM (inconclusive)
AC50 [22]: inconclusive

CC1(C)C(=O)N(CCN2CCC(C(=O)c3ccc(F)cc3)CC2)c2ccccc21
AC50 [22]: inconclusive

Cc1cc(C)c2c(c1)-c1cc(C)nn1C(c1cccnc1)N2 (centres undefined)
AC50 [16]: 1.77 µM (active)

CC1Cc2ccccc2N1C(=O)C1CCCCN1S(=O)(=O)c1ccccc1 (centres undefined)
AC50 [22]: inconclusive
